Measured values reported in US20260285850A1, “SUBSTITUTED OXAZOLIDINONES AND IMIDAZOLINONES AS HERBICIDES” (FMC CORPORATION, priority 2023, published 2026).

Experiments:
Format in all cases: in vivo
[1] = test system: barnyardgrass (Echinochloa crus-galli); experiment: Test A preemergence soil spray, visual injury rating 0-100; settings: 10 days, 0 = no effect, 100 = complete control
In short: (§1)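 Preemergence directed soil spray or postemergence spray (2-10 cm, 1-2 leaf); loam/sand mix; compound in non-phytotoxic solvent + surfactant. Greenhouse, 10 d. Visual injury vs untreated, 0 = none, 100 = complete control.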

[2] = test system: blackgrass (Alopecurus myosuroides); experiment: as above; settings: 10 days, 0 = no effect, 100 = complete control
In short: as §1

[3] = test system: corn (Zea mays); experiment: as above; settings: 10 days, 0 = no effect, 100 = complete control
In short: as §1

[4] = test system: green foxtail (Setaria viridis); experiment: as above; settings: 10 days, 0 = no effect, 100 = complete control
In short: as §1

[5] = test system: kochia (Bassia scoparia); experiment: as above; settings: 10 days, 0 = no effect, 100 = complete control
In short: as §1

[6] = test system: oat, wild (wild oat, Avena fatua); experiment: as above; settings: 10 days, 0 = no effect, 100 = complete control
In short: as §1

[7] = test system: palmer (palmer amaranth, palmer pigweed, Amaranthus palmeri); experiment: as above; settings: 10 days, 0 = no effect, 100 = complete control
In short: as §1

[8] = test system: ragweed (common ragweed, Ambrosia artemisiifolia); experiment: as above; settings: 10 days, 0 = no effect, 100 = complete control
In short: as §1

[9] = test system: ryegrass, Italian (italian ryegrass, Lolium multiflorum); experiment: as above; settings: 10 days, 0 = no effect, 100 = complete control
In short: as §1

[10] = test system: soybean (Glycine max); experiment: as above; settings: 10 days, 0 = no effect, 100 = complete control
In short: as §1

[11] = test system: wheat (Triticum aestivum); experiment: as above; settings: 10 days, 0 = no effect, 100 = complete control
In short: as §1

[12] = test system: barnyardgrass (Echinochloa crus-galli); experiment: Test A postemergence application, visual injury rating 0-100; settings: 10 days
In short: as §1

[13] = test system: blackgrass (Alopecurus myosuroides); experiment: as above; settings: 10 days
In short: as §1

[14] = test system: corn (Zea mays); experiment: as above; settings: 10 days
In short: as §1

[15] = test system: green foxtail (Setaria viridis); experiment: as above; settings: 10 days
In short: as §1

[16] = test system: horseweed (Erigeron canadensis); experiment: as above; settings: 10 days
In short: as §1

[17] = test system: kochia (Bassia scoparia); experiment: as above; settings: 10 days
In short: as §1

[18] = test system: oat, wild (wild oat, Avena fatua); experiment: as above; settings: 10 days
In short: as §1

[19] = test system: palmer (palmer amaranth, palmer pigweed, Amaranthus palmeri); experiment: as above; settings: 10 days
In short: as §1

[20] = test system: ragweed (common ragweed, Ambrosia artemisiifolia); experiment: as above; settings: 10 days
In short: as §1

[21] = test system: ryegrass, Italian (italian ryegrass, Lolium multiflorum); experiment: as above; settings: 10 days
In short: as §1

[22] = test system: soybean (Glycine max); experiment: as above; settings: 10 days
In short: as §1

[23] = test system: wheat (Triticum aestivum); experiment: as above; settings: 10 days
In short: as §1

[24] = test system: barnyardgrass (Echinochloa crusgalli); experiment: Test B flooded paddy test, visual plant response rating 0-100; settings: 250 g ai/ha, Flood, applied to paddy water, evaluated after 13 days
In short: (§2)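 In this flooded assay, 2-leaf seedlings received compound through the water layer, kept at 3 cm over the soil. Plants were held 13 days in a greenhouse and then visually compared with control pots.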

[25] = test system: ducksalad (Heteranthera limosa); experiment: as above; settings: 250 g ai/ha, Flood, applied to paddy water, evaluated after 13 days
In short: as §2

[26] = test system: rice (Oryza sativa); experiment: as above; settings: 250 g ai/ha, Flood, applied to paddy water, evaluated after 13 days
In short: as §2

[27] = test system: sedge, umbrella (small-flower umbrella sedge, Cyperus difformis); experiment: as above; settings: 250 g ai/ha, Flood, applied to paddy water, evaluated after 13 days
In short: as §2

[28] = 31 g ai/ha, postemergence, 0 = no effect, 100 = complete control
[29] = Postemergence, 125 g ai/ha, 0 is no effect, 100 is complete control

In the case of `COC(=O)C1CCC(NC(=O)C2(C)CN(c3cc(F)cc(F)c3)C(=O)O2)C1` (centres unmarked) [Compounds 10], the “Barnyardgrass plant response rating (0-100)” value ([1]; 31 g ai/ha) is reported as 10, the “Barnyardgrass plant response rating (0 to 100 scale)” value ([1]; 125 g ai/ha) is reported as 90 and the “Blackgrass plant response rating (0-100)” value ([2]; 31 g ai/ha) is reported as 30. For the same compound, the “Blackgrass plant response rating (0 to 100 scale)” value ([2]; 125 g ai/ha) was 90, the “Corn plant response rating (0-100)” value ([3]; 31 g ai/ha) was 0 and the “Corn plant response rating (0 to 100 scale)” value ([3]; 125 g ai/ha) was 70. The “Foxtail, Green plant response rating (0-100)” value ([4]; 31 g ai/ha) was 0, the “Foxtail, Green plant response rating (0 to 100 scale)” value ([4]; 125 g ai/ha) was 90 and the “Kochia plant response rating (0-100)” value ([5]; 31 g ai/ha) was 20. For the same compound, the “Kochia plant response rating (0 to 100 scale)” value ([5]; 125 g ai/ha) was 90, the “Oat, Wild plant response rating (0-100)” value ([6]; 31 g ai/ha) was 50 and the “Oat, Wild plant response rating (0 to 100 scale)” value ([6]; 125 g ai/ha) was 80. The “Amaranth, Palmer plant response rating (0-100)” value ([7]; 31 g ai/ha) was 0, the “Amaranth, Palmer plant response rating (0 to 100 scale)” value ([7]; 125 g ai/ha) was 40 and the “Ragweed plant response rating (0-100)” value ([8]; 31 g ai/ha) was 0. The “Ragweed plant response rating (0 to 100 scale)” value ([8]; 125 g ai/ha) was 0, the “Ryegrass, Italian plant response rating (0-100)” value ([9]; 31 g ai/ha) was 10 and the “Ryegrass, Italian plant response rating (0 to 100 scale)” value ([9]; 125 g ai/ha) was 90. For the same compound, the “Soybean plant response rating (0-100)” value ([10]; 31 g ai/ha) was 10, the “Soybean plant response rating (0 to 100 scale)” value ([10]; 125 g ai/ha) was 50 and the “Wheat plant response rating (0-100)” value ([11]; 31 g ai/ha) was 90. For the same compound, the “Wheat plant response rating (0 to 100 scale)” value ([11]; 125 g ai/ha) was 90, the “Barnyardgrass plant response rating (0-100)” value [12, 28] was 60 and the “Barnyardgrass plant response rating (0 to 100 scale)” value [12, 29] was 100. The “Blackgrass plant response rating (0-100)” value [13, 28] was 50, the “Blackgrass plant response rating (0 to 100 scale)” value [13, 29] was 90 and the “Corn plant response rating (0-100)” value [14, 28] was 40. For the same compound, the “Corn plant response rating (0 to 100 scale)” value [14, 29] was 100, the “Foxtail, Green plant response rating (0-100)” value [15, 28] was 20 and the “Foxtail, Green plant response rating (0 to 100 scale)” value [15, 29] was 90. The “Horseweed plant response rating (0-100)” value [16, 28] was 30, the “Horseweed plant response rating (0 to 100 scale)” value [16, 29] was 40 and the “Kochia plant response rating (0-100)” value [17, 28] was 20. For the same compound, the “Kochia plant response rating (0 to 100 scale)” value [17, 29] was 70, the “Oat, Wild plant response rating (0-100)” value [18, 28] was 90 and the “Oat, Wild plant response rating (0 to 100 scale)” value [18, 29] was 90. For the same compound, the “Amaranth, Palmer plant response rating (0-100)” value [19, 28] was 10, the “Amaranth, Palmer / Pigweed, Palmer plant response rating (0 to 100 scale)” value [19, 29] was 80 and the “Ragweed plant response rating (0-100)” value [20, 28] was 0. For the same compound, the “Ragweed plant response rating (0 to 100 scale)” value [20, 29] was 0, the “Ryegrass, Italian plant response rating (0-100)” value [21, 28] was 60 and the “Ryegrass, Italian plant response rating (0 to 100 scale)” value [21, 29] was 80. For the same compound, the “Soybean plant response rating (0-100)” value [22, 28] was 50, the “Soybean plant response rating (0 to 100 scale)” value [22, 29] was 70 and the “Wheat plant response rating (0-100)” value [23, 28] was 80. For the same compound, the “Wheat plant response rating (0 to 100 scale)” value [23, 29] was 90, the “Plant response rating, Barnyardgrass (0 to 100 scale, 0 is no effect and 100 is complete control)” value [24] was 50 and the “Plant response rating, Ducksalad (0 to 100 scale, 0 is no effect and 100 is complete control)” value [25] was 100. For the same compound, the “Plant response rating, Rice (0 to 100 scale, 0 is no effect and 100 is complete control)” value [26] was 10 and the “Plant response rating, Sedge, Umbrella (0 to 100 scale, 0 is no effect and 100 is complete control)” value [27] was 100.
